Patent publication US9067900B2, “Diaminophenothiazine compounds, a method for preparing same and uses thereof” (PHARMA HYDRO DEVELOPMENT—P.H.D., priority 2007, dated 2015)

Tests used:
[1] = tested on: Legionella pneumophila subsp pneumophila CIP 103 854; type: cell-based; conditions: 100 mg/l in distilled water, contact time 15 to 30 mn; dichlorhydrate solution
[2] = tested on: Pseudomonas aeruginosa CIP 103 467; assay: Biocidal activity test according to EN standards (EN 1040, EN 1275); type: cell-based; conditions: 50 to 100 mg/l in distilled water, contact time 15 to 30 mn
[3] = tested on: albino rabbits; assay: Skin irritation/corrosion, OCDE 404 classification; type: in vivo; conditions: 100 mg/l to 1000 mg/l
[4] = tested on: albino rabbits; assay: Eye irritation/corrosion, OCDE 405 classification; type: in vivo; conditions: 100 mg/l to 1000 mg/l
[5] = tested on: Candida albicans IP 48.72; assay: Biocidal activity test according to EN standards (EN 1040, EN 1275); type: cell-based; conditions: under light
Description: The biocidal tests were carried out according to Directive NF EN 1040. Tests were conducted at the same time in the dark and under white light, corresponding to a moderate sunshine (400 KJ/M2) using an ordinary incandescent or halogen lamp. Some tests may be carried out up to 1.3 mW/Cm^2 […] The color change is all the more fast that the solution is illuminated under white light. The tests are performed in sterile glass flasks according to disinfection test standards. Illumination is a sun light illumination or an artificial light illumination and is compared with tests carried out in the dark (glass material is wrapped with aluminium foil). Biocidal activity tests are carried out according to EN standards, for example EN 1040, EN 1275, on reference microbial strains registered under ATCC and CIP, and validated by an accredited laboratory. […] These tests validate as biocide agents as defined by the European pharmacopoeia if the infectious titer reduction is higher than 5. Tests are carried out under white light versus a control in the dark. In all cases, white light accelerates the biocidal phenomenon, for example the biocidal activity under light requires a 15 min-contact time, as opposed to 30 mn in the dark. It should be noted that the DAP 2,8 series may have a “range effect”, that is to say there is a concentration range that is more efficient as compared to higher concentrations.

[6] = tested on: Escherichia coli CIP 54 127; assay: as above; type: cell-based; conditions: 50 to 100 mg/l in distilled water, contact time 15 to 30 mn

CCCN(CCC)c1ccc2c(c1)Nc1cc(N3CCN(C)CC3)ccc1S2 [Example 8, [8-(4-Methyl-piperazin-1-yl)-10H-phenothiazin-2-yl]-dipropylamine]
melting point: 122 to 124 °C

CCCCN(CCCC)c1ccc2c(c1)Nc1cc(N3CCN(C)CC3)ccc1S2 [Example 11, N,N-Dibutyl-[8-(4-methylpiperazin-1-yl)-10H-phenothiazin-2-yl]amine]
melting point: 150 to 152 °C

CN(C)c1ccc2c(c1)Nc1cc(N(C)C)ccc1S2 [Example 1, N,N,N′,N′-tetramethyl-10H-phenothiazine-2,8-diamine]
Infectious titer reduction (log) [1]: >5.5 log | Infectious titer reduction (log) [2]: >5.5 log | irritant or corrosive activity, skin [3]: non-irritant | irritant or corrosive activity, eyes [4]: non-irritant | Infectious titer reduction (log) ([5]; 100 mg/l in distilled water, contact time 30 mn): 3.2 log | Infectious titer reduction ([5]; 250 or 500 mg/l, 30 mn of contact): < 2.8 log | Infectious titer reduction (log) [6]: >5.5 log

CCCNc1ccc2c(c1)Nc1cc(N(C)C)ccc1S2 [Example 13, N,N-Dimethyl-N′-propyl-10H-phenothiazine-2,8-diamine]
melting point: 158 to 160 °C
